Results as given in article PMC6979384, “Characterization of the plant homeodomain (PHD) reader family for their histone tail interactions” (Epigenetics & Chromatin, 2020).

Experiments:
Assay in all cases: Histone peptide microarray
Assay type in all cases: binding, human
Conditions in all cases: sheet "Array Heatmap"; GST-tagged reader; histone peptide array, total n = 4
[1] = system: MORC3 (CW)
Method in brief: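 GST-tagged PHD readers, 0.5 μM, probed on a microarray of 293 synthetic histone peptides carrying single or combinatorial PTMs (optimized Petell protocol). Signals are averaged over 4 replicates and expressed as relative binding.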

[2] = system: DIDO1
Method in brief: (§1)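 Using an optimized microarray protocol, purified GST-tagged PHD fingers were incubated at 0.5 μM on 293 histone peptides with single or multiple modifications, and array signal was recorded as the average of 4 replicates.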

[3] = system: TAF3
Method in brief: as §1

[4] = system: KDM5B (1)
Method in brief: as §1

[5] = system: AIRE (PP)
Method in brief: as §1

[6] = system: PHF2
Method in brief: as §1

[7] = system: PHRF1 (RP)
Method in brief: as §1

[8] = system: KDM5B (3)
Method in brief: as §1

[9] = system: BPTF (PB)
Method in brief: as §1

[10] = system: KDM5A (1)
Method in brief: as §1

[11] = system: ING3
Method in brief: as §1

[12] = system: PHF8
Method in brief: as §1

[13] = system: MLL5
Method in brief: as §1

[14] = system: CHD5 (PPCC)
Method in brief: as §1

[15] = system: PHF23
Method in brief: as §1

[16] = system: CHD5 (PCC)
Method in brief: as §1

[17] = system: KDM7A
Method in brief: as §1

[18] = system: ING2
Method in brief: as §1

[19] = system: BAZ2B
Method in brief: as §1

[20] = system: KDM4C (TTP)
Method in brief: as §1

[21] = system: KDM5A (3)
Method in brief: as §1

[22] = system: ING1
Method in brief: as §1

[23] = system: SP140L
Method in brief: as §1

[24] = system: ING5
Method in brief: as §1

[25] = system: DPF2 (PPC2W2)
Method in brief: as §1

[26] = system: TRIM66 (PB)
Method in brief: as §1

[27] = system: RAG2
Method in brief: as §1

[28] = system: PHF13
Method in brief: as §1

[29] = system: ING4
Method in brief: as §1

[30] = system: PHF21A
Method in brief: as §1

[31] = system: CHD4 (PPCC)
Method in brief: as §1

| Substance | Array Heatmap signal, MORC3 (CW) [1] | Array Heatmap signal, DIDO1 [2] | Array Heatmap signal, TAF3 [3] | Array Heatmap signal, KDM5B (1) [4] | Array Heatmap signal, AIRE (PP) [5] | Array Heatmap signal, PHF2 [6] | Array Heatmap signal, PHRF1 (RP) [7] | Array Heatmap signal, KDM5B (3) [8] | Array Heatmap signal, BPTF (PB) [9] | Array Heatmap signal, KDM5A (1) [10] | Array Heatmap signal, ING3 [11] | Array Heatmap signal, PHF8 [12] | Array Heatmap signal, MLL5 [13] | Array Heatmap signal, CHD5 (PPCC) [14] | Array Heatmap signal, PHF23 [15] | Array Heatmap signal, CHD5 (PCC) [16] | Array Heatmap signal, KDM7A [17] | Array Heatmap signal, ING2 [18] | Array Heatmap signal, BAZ2B [19] | Array Heatmap signal, KDM4C (TTP) [20] | also measured |
| --- | --- | --- | --- | --- | --- | --- | --- | --- | --- | --- | --- | --- | --- | --- | --- | --- | --- | --- | --- | --- | --- |
| H3R8me1 + K9me2: H3 1-20 | 0.4736 | 0.8013 | 0.3249 | 0.696 | 0.4949 | 0.6657 | 0.6787 | 0.5247 | 0.4109 | 0.5283 | 0.5783 | 0.3836 | 0.5733 | 0.658 | 0.6046 | 0.7992 | 0.3959 | 0.6201 | 0.525 | 0.5659 | Array Heatmap signal, KDM5A (3) [21]: 0.6031; Array Heatmap signal, ING1 [22]: 0.6213; Array Heatmap signal, SP140L [23]: 0.3989; Array Heatmap signal, ING5 [24]: 0.4288; Array Heatmap signal, DPF2 (PPC2W2) [25]: 0.8023; Array Heatmap signal, TRIM66 (PB) [26]: 0.6813; Array Heatmap signal, RAG2 [27]: 0.302; Array Heatmap signal, PHF13 [28]: 0.7136; Array Heatmap signal, ING4 [29]: 0.5352; Array Heatmap signal, PHF21A [30]: 0.4957; Array Heatmap signal, CHD4 (PPCC) [31]: 0.7009 |
| H3R8me1: H3 1-20 [Peptide H3R8me1] | 0.4492 | 0.6306 | 0.2594 | 0.6779 | 0.5084 | 0.4833 | 0.6379 | 0.4843 | 0.34 | 0.4661 | 0.4554 | 0.3354 | 0.5181 | 0.5449 | 0.5397 | 0.7411 | 0.3359 | 0.6007 | 0.4447 | 0.4945 | Array Heatmap signal, KDM5A (3) [21]: 0.5111; Array Heatmap signal, ING1 [22]: 0.4918; Array Heatmap signal, SP140L [23]: 0.3587; Array Heatmap signal, ING5 [24]: 0.3558; Array Heatmap signal, DPF2 (PPC2W2) [25]: 0.6736; Array Heatmap signal, TRIM66 (PB) [26]: 0.5513; Array Heatmap signal, RAG2 [27]: 0.2447; Array Heatmap signal, PHF13 [28]: 0.597; Array Heatmap signal, ING4 [29]: 0.4481; Array Heatmap signal, PHF21A [30]: 0.4425; Array Heatmap signal, CHD4 (PPCC) [31]: 0.56 |
